Test results from patent publication US9359322B2, “C-linked glucuronide of N-(4-hydroxybenzyl) retinone, analogs thereof, and methods of using the same to inhibit neoplastic cell growth” (Wisconsin Alumni Research Foundation, priority 2005, dated 2016).

Legend:
RARβ = target: T1, RARβ (Homo sapiens, UniProt P10826); experiment: Nuclear retinoid receptor binding assay, competition with [3H]all-trans RA; conditions: competition for [3H]atRA; present work
T1 sequence (P10826 1-455): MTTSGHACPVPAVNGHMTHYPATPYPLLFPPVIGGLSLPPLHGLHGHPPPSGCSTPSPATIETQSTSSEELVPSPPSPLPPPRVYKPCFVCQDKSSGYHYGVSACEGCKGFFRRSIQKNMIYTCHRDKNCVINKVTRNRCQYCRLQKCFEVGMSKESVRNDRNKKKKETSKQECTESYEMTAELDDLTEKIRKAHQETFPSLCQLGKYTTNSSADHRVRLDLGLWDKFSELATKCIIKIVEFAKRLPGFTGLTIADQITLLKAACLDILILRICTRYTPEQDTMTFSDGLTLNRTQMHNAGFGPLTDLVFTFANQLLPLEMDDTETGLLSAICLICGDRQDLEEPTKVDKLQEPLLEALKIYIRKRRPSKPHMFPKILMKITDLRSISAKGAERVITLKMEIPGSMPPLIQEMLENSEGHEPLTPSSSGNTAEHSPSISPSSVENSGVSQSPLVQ
Protocol: (§1) Nuclear Retinoid Receptor Binding Assay. Competition of 3 and 7 and 4-HBRCGlucose with [^3H]-all-trans-RA (4.2-4.6 nM) for binding to RARβ and RARγ and with [^3H]-9-cis RA (1.9 nM) for binding to RXRγ was determined using an in vitro ligand binding assay.^41, 42 [^3H]-all-trans-RA (40.5 Ci/mmole) or [^3H]-9-cis-RA (69.4 Ci/mmole) was added to receptor-containing extracts in the absence and presence of increasing concentrations of competing ligands at 4° C. for 3 hr. A hydroxylapatite (HAP) assay was used to separate ligand bound to receptor from that free in solution, and the radioactivity associated with the HAP pellet was measured by scintillation counting.

[1] = Plasma triglyceride measurement; type: in vivo, rat; conditions: 2 mmol/kg diet, 22 days; FIG. 2A
Protocol: Plasma Triglyceride Measurement. Bloods were drawn from anesthetized animals in the presence of EDTA as an anticoagulant, and the resulting plasma was used for the measurement of plasma “true” triglyceride levels using a kit from Sigma-Aldrich (Saint Louis, Mo.). Briefly, the total plasma triglyceride and glycerol concentrations were determined, and the glycerol component was subtracted from the total plasma triglyceride measurement to obtain the “true” serum triglyceride concentration.

CYP26B1 mRNA = experiment: Induction of CYP26B1 mRNA in lung (Q-PCR); type: in vivo, rat; conditions: at sacrifice, retinoid-fed rats, 2 mmol/kg diet; data not shown
RXRγ = target: T2, RXRγ (Homo sapiens, UniProt P48443); experiment: Nuclear retinoid receptor binding assay, competition with [3H]9-cis RA; conditions: 4-HBRCG up to 10^−4.5 M; data not shown
T2 sequence (P48443 1-463): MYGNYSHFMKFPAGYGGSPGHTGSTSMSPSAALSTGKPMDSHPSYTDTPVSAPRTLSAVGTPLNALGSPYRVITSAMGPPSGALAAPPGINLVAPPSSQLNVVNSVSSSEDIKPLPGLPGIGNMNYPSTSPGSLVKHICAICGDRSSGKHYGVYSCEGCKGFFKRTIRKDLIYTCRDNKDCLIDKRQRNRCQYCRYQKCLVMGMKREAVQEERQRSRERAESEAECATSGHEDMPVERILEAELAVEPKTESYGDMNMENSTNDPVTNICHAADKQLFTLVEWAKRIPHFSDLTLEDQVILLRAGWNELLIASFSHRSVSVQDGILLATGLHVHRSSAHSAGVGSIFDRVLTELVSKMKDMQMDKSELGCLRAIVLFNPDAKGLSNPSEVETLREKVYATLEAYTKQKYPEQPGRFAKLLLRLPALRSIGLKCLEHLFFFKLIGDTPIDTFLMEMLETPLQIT
Protocol: as §1

[2] = Body weight change during retinoid feeding; type: in vivo, rat; conditions: relative to baseline body weight over 22 days; 2 mmol/kg diet
Protocol: Animal Studies: Mammary tumors were induced by intragastric intubation of 50-day old female Sprague-Dawley rats (Harlan Industries, Indianapolis, Ind.) with a single dose of 15 mg DMBA in 1.0 ml of sesame oil per rat. The rats were then maintained on a powdered Teklad 22/5 rodent chow diet (W) 8640 (Harlan Industries, Indianapolis, Ind.), and allowed food and water ad libitum. Four months later, rats which had developed palpable tumors were randomly assigned to the experimental groups (4 rats/group). The retinoid-treated groups were fed diets supplemented with 2 mmol/kg diet of atRA, 4-HPR, or 4-HBRCG, respectively. The retinoids were added to the diet in a vehicle consisting of 25 ml of ethanol: tricaprylin (1:4 v/v) plus 2% (w/v) of α-tocopherol as previously described.^9 This vehicle was also added to the control diet. The additives were blended into the chow diets using a Hobart food mixer. The diets were fed in stainless steel feeders designed with food hoppers. The food was replaced weekly with freshly prepared diets. Food consumption was determined once weekly, and from that the average daily consumption/rat was estimated. These diets were continuously fed for 22 days. Animals were also weighted weekly and monitored for general health status and signs of possible toxicity due to treatment.
Baseline measurement of initial tumor sizes, numbers and rat body weights were determined immediately before commencement of treatments, and final measurements were recorded just prior to sacrifice of the animals. Animals were palpated for tumors twice weekly and tumor diameters were measured weekly by a micrometer caliper. Tumor volumes were calculated using the formula [V= 4/3 πr^3] where r is one-half the mean of the sum of the largest diameter and the axis at right angle to it. All tumors as well as lungs, liver, kidney and femur were excised at the end of the experiment for chemical and histopathological evaluation. Blood samples were also taken from each animal for determination of plasma retinol and triglyceride levels.

[3] = system: MCF-7 human breast cancer cells; experiment: Growth inhibition of MCF-7 human breast cancer cells; type: cell-based; conditions: 10^−5 M, 8-day period; FIG. 5
Protocol: Inhibition of MCF-7 human breast cancer cell growth over an 8-day period was used as a means to assess the activity of 4-HBRCG and the analog 4-HBRCGlucose.
Growth inhibition of MCF-7 human breast cancer cells. MCF-7 cells were obtained from the American Type Culture Collection, Manassas, Va. They were maintained in DMEM medium supplemented with 4 g/L glucose, 3.7 g/L sodium bicarbonate and 10% heat-inactivated fetal calf serum. Cells were passaged into 12-well plates, cultured for 24 hours, after which time they were dosed with vehicle (0.2% ethanol) or retinoids; medium was changed and fresh vehicle or retinoids were added daily. Cells were harvested and the number of live cells was assessed using fluorescein diacetate, which yields a fluorescent product upon cleavage by metabolically active cells. Using fluorescent microscopy, at least 200 cells/well were counted with a hemacytometer.

In the case of `CC1=C(/C=C/C(C)=C/C=C/C(C)=C/C(=O)Cc2ccc(CC3OC(C(=O)O)C(O)C(O)C3O)cc2)C(C)(C)CCC1` [4-HBRCG (7), 2,6-Anhydro-7-deoxy-7-[4-(retinoylmethyl)-phenyl]-L-glycero-L-gulo-heptinoic acid], the “Times less potent than atRA in binding to RARβ” value (RARβ) is reported as 300 times, the “Effect on serum triglyceride concentration” value [1] is reported as “did not cause this undesirable effect” and the “Induction of CYP26B1 mRNA in lung” value (CYP26B1 mRNA) is reported as “did not induce these cytochrome p450 mRNAs”. The “Competition for [3H]9-cis RA binding to RXR” value (RXRγ) was “almost no competition”, the “% Weight change” value [2] was “+3%” and the “Effect on number of live MCF-7 cells” value [3] was “reduction in the number of live cells”.
